Columns and labels:
[1] = system: PBMCs of HLA-A2^+ healthy donors and prostate cancer patients; assay: Assay for peptide-specific CTLs in PBMCs (IFN-γ ELISA, peptide-pulsed T2 cells); assay type: cell-based, human; details: for INF-γ production: T2 cells
[2] = system: IgG in plasma of HLA-A2^+ healthy donors and prostate cancer patients; assay: Peptide-specific IgG in plasma by ELISA (HLA-A2-binding PTHrP peptides); parameters: species or system human; details: for IgG reactive to the peptide in plasma (difference of OD): 1:100-diluted plasma
Protocol: Peptide-specific IgG levels in the plasma were measured by ELISA, as previously reported. In brief, peptide (20 μg/well)-immobilized plates were blocked with Block Ace (Yukijirushi, Tokyo, Japan) and washed with 0.05% Tween20-PBS, after which 100 μl/well of plasma sample diluted with 0.05% Tween20-Block Ace was added to the plate. After 2 hours incubation at 37° C., the plates were washed and further incubated for 2 hours with a 1:1000-diluted rabbit anti-human IgG (γ-chain-specific) (DAKO, Glostrup, Denmark). The plates were washed, and then 100 μl of 1:100-diluted goat anti-rabbit IgG-conjugated horseradish peroxidase (EnVision, DAKO) was added to each well, and the plates were then incubated at room temperature for 40 min. After the plates were washed once, 100 μl/well of tetramethyl benzidine substrate solution (KPL, Guildford, UK) was added, and the reaction was stopped by the addition of 1 M phosphoric acid. The values are shown as optical density (OD) units/ml, and responses to the HIV peptide were subtracted. IgG reactive to a corresponding PTHrP peptide was judged to be positive when the difference of the OD in 1:100-diluted plasma exceeded 0.05. The results that IgG reactive to either the PTHrP102-111 or the […] peptide was detected in 8 of 10 healthy donors and in 7 of 10 prostate cancers are shown in Table 2 hereinafter.
In a similar way to Example 3, it was examined whether IgGs reactive to peptides of PTHrP 42-51 and PTHrP 59-67 could be detected in the plasma of 10 healthy donors and 10 cancer patients. The cut-off value at 1:100-diluted plasma was ODO.054.

With LLHDKGKSI [PTHrP 43-51] the INF-γ production ([1]; HLA-A2^+ healthy donor #1 (A0201)) was 17 pg/mL, the INF-γ production ([1]; HLA-A2^+ healthy donor #2 (A0201)) was 21 pg/mL and the INF-γ production ([1]; HLA-A2^+ healthy donor #3 (A0201)) was 23 pg/mL. It also gave an INF-γ production ([1]; HLA-A2^+ healthy donor #4 (A0201)) of 27 pg/mL, an INF-γ production ([1]; HLA-A2^+ healthy donor #5 (A0206)) of 0 pg/mL and an INF-γ production ([1]; HLA-A2^+ healthy donor #6 (A0206)) of 0 pg/mL. It also gave an INF-γ production ([1]; HLA-A2^+ healthy donor #7 (A0206)) of 0 pg/mL, an INF-γ production ([1]; HLA-A2^+ healthy donor #8 (A0206)) of 0 pg/mL and an INF-γ production ([1]; HLA-A2^+ healthy donor #9 (A0206)) of 0 pg/mL. For the same sequence, the INF-γ production ([1]; HLA-A2^+ healthy donor #10 (A0207)) was 0 pg/mL, the “Total (donors with significant peptide-specific IFN-γ production / donors tested)” value ([1]; HLA-A2^+ healthy donors, p < 0.05) was 0/10 and the INF-γ production ([1]; HLA-A2^+ prostate cancer patient #1 (A0206)) was 40 pg/mL. The INF-γ production ([1]; HLA-A2^+ prostate cancer patient #2 (A0210)) was 56 pg/mL, the INF-γ production ([1]; HLA-A2^+ prostate cancer patient #3 (A0210)) was 185 pg/mL and the INF-γ production ([1]; HLA-A2^+ prostate cancer patient #4 (A0206)) was 0 pg/mL. The INF-γ production ([1]; HLA-A2^+ prostate cancer patient #5 (A0206)) was 39 pg/mL, the INF-γ production ([1]; HLA-A2^+ prostate cancer patient #6 (A0207)) was 51 pg/mL and the INF-γ production ([1]; HLA-A2^+ prostate cancer patient #7 (A0206)) was 0 pg/mL. The INF-γ production ([1]; HLA-A2^+ prostate cancer patient #8 (A0206)) was 23 pg/mL, the INF-γ production ([1]; HLA-A2^+ prostate cancer patient #9 (A0201)) was 14 pg/mL and the INF-γ production ([1]; HLA-A2^+ prostate cancer patient #10 (A0201)) was 0 pg/mL. The “Total (patients with significant peptide-specific IFN-γ production / patients tested)” value ([1]; HLA-A2^+ prostate cancer patients, p < 0.05) was 1/10, the “IgG reactive to the peptide in plasma (difference of OD)” value (shortened to “IgG reactive … (difference of OD)”) ([2]; HLA-A2^+ healthy donor #1) was “— (IgG reactive to a corresponding peptide was judged to be positive when a difference of OD in a 1:100-diluted plasma was more than 0.054.)” and the “IgG reactive … (difference of OD)” value ([2]; HLA-A2^+ healthy donor #2) was 0.102 OD. The “IgG reactive … (difference of OD)” value ([2]; HLA-A2^+ healthy donor #3) was “— (IgG reactive to a corresponding peptide was judged to be positive when a difference of OD in a 1:100-diluted plasma was more than 0.054.)”, the “IgG reactive … (difference of OD)” value ([2]; HLA-A2^+ healthy donor #4) was 0.155 OD and the “IgG reactive … (difference of OD)” value ([2]; HLA-A2^+ healthy donor #5) was “— (IgG reactive to a corresponding peptide was judged to be positive when a difference of OD in a 1:100-diluted plasma was more than 0.054.)”. The “IgG reactive … (difference of OD)” value ([2]; HLA-A2^+ healthy donor #6) was “— (IgG reactive to a corresponding peptide was judged to be positive when a difference of OD in a 1:100-diluted plasma was more than 0.054.)”, the “IgG reactive … (difference of OD)” value ([2]; HLA-A2^+ healthy donor #7) was “— (IgG reactive to a corresponding peptide was judged to be positive when a difference of OD in a 1:100-diluted plasma was more than 0.054.)” and the “IgG reactive … (difference of OD)” value ([2]; HLA-A2^+ healthy donor #8) was 0.121 OD. The “IgG reactive … (difference of OD)” value ([2]; HLA-A2^+ healthy donor #9) was “— (IgG reactive to a corresponding peptide was judged to be positive when a difference of OD in a 1:100-diluted plasma was more than 0.054.)”, the “IgG reactive … (difference of OD)” value ([2]; HLA-A2^+ healthy donor #10) was “— (IgG reactive to a corresponding peptide was judged to be positive when a difference of OD in a 1:100-diluted plasma was more than 0.054.)” and the “Total (IgG-positive donors / donors tested)” value ([2]; HLA-A2^+ healthy donors) was 3/10. For the same sequence, the “IgG reactive … (difference of OD)” value ([2]; HLA-A2^+ prostate cancer patient #1) was “— (IgG reactive to a corresponding peptide was judged to be positive when a difference of OD in a 1:100-diluted plasma was more than 0.054.)”, the “IgG reactive … (difference of OD)” value ([2]; HLA-A2^+ prostate cancer patient #2) was 0.078 OD and the “IgG reactive … (difference of OD)” value ([2]; HLA-A2^+ prostate cancer patient #3) was “— (IgG reactive to a corresponding peptide was judged to be positive when a difference of OD in a 1:100-diluted plasma was more than 0.054.)”. For the same sequence, the “IgG reactive … (difference of OD)” value ([2]; HLA-A2^+ prostate cancer patient #4) was “— (IgG reactive to a corresponding peptide was judged to be positive when a difference of OD in a 1:100-diluted plasma was more than 0.054.)”, the “IgG reactive … (difference of OD)” value ([2]; HLA-A2^+ prostate cancer patient #5) was “— (IgG reactive to a corresponding peptide was judged to be positive when a difference of OD in a 1:100-diluted plasma was more than 0.054.)” and the “IgG reactive … (difference of OD)” value ([2]; HLA-A2^+ prostate cancer patient #6) was 0.0895 OD. For the same sequence, the “IgG reactive … (difference of OD)” value ([2]; HLA-A2^+ prostate cancer patient #7) was 0.0795 OD, the “IgG reactive … (difference of OD)” value ([2]; HLA-A2^+ prostate cancer patient #8) was “— (IgG reactive to a corresponding peptide was judged to be positive when a difference of OD in a 1:100-diluted plasma was more than 0.054.)” and the “IgG reactive … (difference of OD)” value ([2]; HLA-A2^+ prostate cancer patient #9) was “— (IgG reactive to a corresponding peptide was judged to be positive when a difference of OD in a 1:100-diluted plasma was more than 0.054.)”. The “IgG reactive … (difference of OD)” value ([2]; HLA-A2^+ prostate cancer patient #10) was “— (IgG reactive to a corresponding peptide was judged to be positive when a difference of OD in a 1:100-diluted plasma was more than 0.054.)” and the “Total (IgG-positive patients / patients tested)” value ([2]; HLA-A2^+ prostate cancer patients) was 3/10.

— US20080014186A1, “Hla-A24 or Hla-A2 Binding Peptides of Parathyroid Hormone-Related Protein” (GREEN PEPTIDE CO., LTD., priority 2004, published 2008)
